Assay results published in US12129312B2, “Peptide compound, application thereof and composition containing same” (priority 2017, dated 2024).
Where two headings read alike, the source gives them in different places. Numbered stars: 1 amine (or outer) side, 2 acyl side, 3 side chain; on linkers, the order of the positions; unused ones are H or OH. Square brackets hold non-standard residues; d marks the D form. Peptide text beside a SMILES is read from it. * marks the point of attachment. Pro(trans-4-Ph) = O=C(O)[C@@H]1C[C@@H](c2ccccc2)CN1; Phenylacetyl(4-Ph) = O=C(Cc1ccc(-c2ccccc2)cc1)*; Benzoyl(3,5-(OH)2) = O=C(c1cc(O)cc(O)c1)*; X6 = CCCN([C@@H](CC(C)C)C(=O)[*:2])[*:1]; Pro(4,4-F2) = O=C(O)[C@@H]1CC(F)(F)CN1; 1Nal = N[C@@H](Cc1cccc2ccccc12)C(=O)O; 2Nal = N[C@@H](Cc1ccc2ccccc2c1)C(=O)O; dNMeY = CN[C@H](Cc1ccc(O)cc1)C(=O)O; Hydrocinnamoyl = O=C(CCc1ccccc1)*; NMehLeu = CN[C@@H](CCC(C)C)C(=O)O; NMeF = CN[C@@H](Cc1ccccc1)C(=O)O; Tic = O=C(O)[C@@H]1Cc2ccccc2CN1; NMeL = CN[C@@H](CC(C)C)C(=O)O; NHPhenethyl = c1ccc(CCN*)cc1; X12 = O=C(Cc1cc(O)cc(O)c1)*; NMeS = CN[C@@H](CO)C(=O)O; Thz = O=C(O)[C@@H]1CSCN1; X8 = O=C(c1c(O)cccc1O)*; Hexanoyl = CCCCCC(=O)*; CO = O=C([*:1])[*:2]

Molecular target: T1, human Chemokine like receptor 1 (Homo sapiens, UniProt Q99788)
T1 construct: host or cells: U2OS (Tango CMKLR1-bla U2OS)
T1 sequence (Q99788 1-373): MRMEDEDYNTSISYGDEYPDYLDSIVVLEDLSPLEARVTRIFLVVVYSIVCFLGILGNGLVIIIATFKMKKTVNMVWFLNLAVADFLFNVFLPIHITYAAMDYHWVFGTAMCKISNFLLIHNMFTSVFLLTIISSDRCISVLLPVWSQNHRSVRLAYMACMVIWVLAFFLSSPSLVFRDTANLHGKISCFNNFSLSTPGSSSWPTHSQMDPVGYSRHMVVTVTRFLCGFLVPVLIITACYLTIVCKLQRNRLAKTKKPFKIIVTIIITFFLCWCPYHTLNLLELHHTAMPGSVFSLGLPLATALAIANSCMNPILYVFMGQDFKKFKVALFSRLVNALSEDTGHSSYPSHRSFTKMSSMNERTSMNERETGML
Assay: Activation of Tango CMKLR1-bla U2OS cells (beta-lactamase FRET reporter)
Type: cell-based
Summary of the method: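 Agonist mode in Tango CMKLR1-bla U2OS cells, 10000 cells/well seeded overnight, then 10-point 3-fold compound dilutions from 10 mM DMSO stock applied for 4 h at 37 °C, 5% CO2. Beta-lactamase reporter read with CCF4-AM FRET substrate; peptide (D-Tyr)-Phe-Leu-Pro-(D-Ser)-Gln-Phe-(D-Ala)-Tic-Ser served as positive control.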

[1] = determination by the method of Effect Embodiment 1, read-out: EC50

With `CC(C)C[C@H](NC(=O)[C@H](Cc1ccccc1)NC(=O)[C@@H](Cc1ccc(O)cc1)NC(=O)Cc1cc(O)cc(O)c1)C(=O)N1CCC[C@H]1C(=O)N[C@H](CO)C(=O)N[C@@H](CCC(N)=O)C(=O)N[C@@H](Cc1ccccc1)C(=O)N[C@H](C)C(=O)N1Cc2ccccc2C[C@H]1C(=O)N[C@@H](CO)C(=O)O` [YW-131, 3,5-Dihydroxyphenylacetyl-(D-Tyr)-Phe-Leu-Pro-(D-Ser)-Gln-Phe-(D-Ala)-Tic-Ser] (X12-[dY]FLP[dS]QF[dA][Tic]S-OH) the EC50 [1] was 2.9 nM.

Compound `CC(C)C[C@H](NC(=O)[C@H](Cc1ccccc1)NC(=O)[C@H](N)Cc1ccc(O)cc1)C(=O)N1C[C@H](c2ccccc2)C[C@H]1C(=O)N[C@H](CO)C(=O)N[C@@H](CCC(N)=O)C(=O)N[C@@H](Cc1ccccc1)C(=O)N[C@H](C)C(=O)N1Cc2ccccc2C[C@H]1C(=O)N[C@@H](CO)C(=O)O` [YW-113, (D-Tyr)-Phe-Leu-Pro(4-Ph)-(D-Ser)-Gln-Phe-(D-Ala)-Tic-Ser-OH] (H-[dY]FL[Pro(trans-4-Ph)][dS]QF[dA][Tic]S-OH) has an EC50 [1] of 8.6 nM.

`CCCN(C(=O)[C@H](Cc1ccccc1)NC(=O)[C@H](N)Cc1ccc(O)cc1)[C@@H](CC(C)C)C(=O)N1CCC[C@H]1C(=O)N[C@H](CO)C(=O)N[C@@H](CCC(N)=O)C(=O)N[C@@H](Cc1ccccc1)C(=O)N[C@H](C)C(=O)N1Cc2ccccc2C[C@H]1C(=O)N[C@@H](CO)C(=O)O` [YW-184, (D-Tyr)-Phe-(NPr-Leu)-Pro-(D-Ser)-Gln-Phe-(D-Ala)-Tic-Ser] (H-[dY]F[X6]P[dS]QF[dA][Tic]S-OH) showed an EC50 [1] of 16 nM.

In the case of `CC(C)C[C@H](NC(=O)[C@H](Cc1ccccc1)NC(=O)[C@@H](Cc1ccc(O)cc1)NC(=O)c1cc(O)cc(O)c1)C(=O)N1CCC[C@H]1C(=O)N[C@H](CO)C(=O)N[C@@H](CCC(N)=O)C(=O)N[C@@H](Cc1ccccc1)C(=O)N[C@H](C)C(=O)N1Cc2ccccc2C[C@H]1C(=O)N[C@@H](CO)C(=O)O` [YW-79, 3,5-dihydroxybenzoyl-(D-Tyr)-Phe-Leu-Pro-(D-Ser)-Gln-Phe-(D-Ala)-Tic-Ser-OH] ({Benzoyl(3,5-(OH)2)}-[dY]FLP[dS]QF[dA][Tic]S-OH), the EC50 [1] is reported as 4.7 nM.

For `CCCCCC(=O)N[C@H](Cc1ccc(O)cc1)C(=O)N[C@@H](Cc1ccccc1)C(=O)N(C)[C@@H](CC(C)C)C(=O)N1CCC[C@H]1C(=O)N[C@H](CO)C(=O)N[C@@H](CCC(N)=O)C(=O)N[C@@H](Cc1ccccc1)C(=O)N[C@H](C)C(=O)N1Cc2ccccc2C[C@H]1C(=O)N[C@@H](CO)C(=O)O` [YW-193, Hexanoyl-(D-Tyr)-Phe-(NMe-Leu)-Pro-(D-Ser)-Gln-Phe-(D-Ala)-Tic-Ser] (Hexanoyl-[dY]F[NMeL]P[dS]QF[dA][Tic]S-OH), the EC50 [1] was 1.4 nM.

`CC(C)C[C@@H](C(=O)N1CCC[C@H]1C(=O)N[C@H](CO)C(=O)N[C@@H](CCC(N)=O)C(=O)N[C@@H](Cc1cccc2ccccc12)C(=O)N[C@H](C)C(=O)N1Cc2ccccc2C[C@H]1C(=O)N[C@@H](CO)C(=O)O)N(C)C(=O)[C@H](Cc1ccccc1)NC(=O)[C@H](N)Cc1ccc(O)cc1` [YW-165, (D-Tyr)-Phe-(NMe-Leu)-Pro-(D-Ser)-Gln-1Nal-(D-Ala)-Tic-Ser-OH] (H-[dY]F[NMeL]P[dS]Q[1Nal][dA][Tic]S-OH) showed an EC50 of 1.5 nM.

`CC(C)CC[C@@H](C(=O)N1CCC[C@H]1C(=O)N[C@H](CO)C(=O)N[C@@H](CCC(N)=O)C(=O)N[C@@H](Cc1ccccc1)C(=O)N[C@H](C)C(=O)N1Cc2ccccc2C[C@H]1C(=O)N[C@@H](CO)C(=O)O)N(C)C(=O)[C@H](Cc1ccccc1)NC(=O)[C@H](N)Cc1ccc(O)cc1` [YW-101, (D-Tyr)-Phe-(NMe-HoLeu)-Pro-(D-Ser)-Gln-Phe-(D-Ala)-Tic-Ser-OH] (H-[dY]F[NMehLeu]P[dS]QF[dA][Tic]S-OH) gave an EC50 of 2.9 nM.

Compound `CC(C)C[C@@H](C(=O)N1CC(F)(F)C[C@H]1C(=O)N[C@H](CO)C(=O)N[C@@H](CCC(N)=O)C(=O)N[C@@H](Cc1ccccc1)C(=O)N[C@H](C)C(=O)N1Cc2ccccc2C[C@H]1C(=O)N[C@@H](CO)C(=O)O)N(C)C(=O)[C@H](Cc1ccccc1)NC(=O)[C@H](N)Cc1ccc(O)cc1` [YW-174, (D-Tyr)-Phe-(NMe-Leu)-Pro(diF)-(D-Ser)-Gln-Phe-(D-Ala)-Tic-Ser-OH] (H-[dY]F[NMeL][Pro(4,4-F2)][dS]QF[dA][Tic]S-OH) has an EC50 [1] of 1.2 nM.

`CC(C)C[C@H](NC(=O)[C@H](Cc1ccccc1)NC(=O)[C@@H](Cc1ccc(O)cc1)NC(=O)NCCc1ccccc1)C(=O)N1CCC[C@H]1C(=O)N[C@H](CO)C(=O)N[C@@H](CCC(N)=O)C(=O)N[C@@H](Cc1ccccc1)C(=O)N[C@H](C)C(=O)N1Cc2ccccc2C[C@H]1C(=O)N[C@@H](CO)C(=O)O` [YW-72, Phenethylcarbamoyl-(D-Tyr)-Phe-Leu-Pro-(D-Ser)-Gln-Phe-(D-Ala)-Tic-Ser-OH] ({NHPhenethyl-CO}-[dY]FLP[dS]QF[dA][Tic]S-OH) showed an EC50 [1] of 45 nM.

`CC(C)C[C@@H](C(=O)N1CCC[C@H]1C(=O)N[C@H](CO)C(=O)N[C@@H](CCC(N)=O)C(=O)N[C@@H](Cc1ccccc1)C(=O)N[C@H](C)C(=O)N1Cc2ccccc2C[C@H]1C(=O)N[C@@H](CO)C(=O)O)N(C)C(=O)[C@H](Cc1ccc2ccccc2c1)NC(=O)[C@H](N)Cc1ccc(O)cc1` [YW-200, (D-Tyr)-2Nal-(NMe-Leu)-Pro-(D-Ser)-Gln-Phe-(D-Ala)-Tic-Ser] (H-[dY][2Nal][NMeL]P[dS]QF[dA][Tic]S-OH) gave an EC50 of 19 nM.

Work on `CC(C)C[C@H](NC(=O)[C@H](Cc1ccccc1)NC(=O)[C@@H](Cc1ccc(O)cc1)NC(=O)Cc1ccc(-c2ccccc2)cc1)C(=O)N1CCC[C@H]1C(=O)N[C@H](CO)C(=O)N[C@@H](CCC(N)=O)C(=O)N[C@@H](Cc1ccccc1)C(=O)N[C@H](C)C(=O)N1Cc2ccccc2C[C@H]1C(=O)N[C@@H](CO)C(=O)O` [YW-77, 4-biphenylacetyl-(D-Tyr)-Phe-Leu-Pro-(D-Ser)-Gln-Phe-(D-Ala)-Tic-Ser-OH] ({Phenylacetyl(4-Ph)}-[dY]FLP[dS]QF[dA][Tic]S-OH) yielded an EC50 of 53 nM.

`CC(C)C[C@H](NC(=O)[C@H](Cc1ccccc1)NC(=O)[C@@H](Cc1ccc(O)cc1)NC(=O)c1c(O)cccc1O)C(=O)N1CCC[C@H]1C(=O)N[C@H](CO)C(=O)N[C@@H](CCC(N)=O)C(=O)N[C@@H](Cc1ccccc1)C(=O)N[C@H](C)C(=O)N1Cc2ccccc2C[C@H]1C(=O)N[C@@H](CO)C(=O)O` [YW-128, 2,6-dihydroxybenzoyl-(D-Tyr)-Phe-Leu-Pro-(D-Ser)-Gln-Phe-(D-Ala)-Tic-Ser-OH] (X8-[dY]FLP[dS]QF[dA][Tic]S-OH) showed an EC50 [1] of 20 nM.

In the case of `CC(C)C[C@H](NC(=O)[C@H](Cc1ccccc1)NC(=O)[C@@H](Cc1ccc(O)cc1)NC(=O)CCc1ccccc1)C(=O)N1CCC[C@H]1C(=O)N[C@H](CO)C(=O)N[C@@H](CCC(N)=O)C(=O)N[C@@H](Cc1ccccc1)C(=O)N[C@H](C)C(=O)N1Cc2ccccc2C[C@H]1C(=O)N[C@@H](CO)C(=O)O` [YW-71, 3-phenylpropanoyl-(D-Tyr)-Phe-Leu-Pro-(D-Ser)-Gln-Phe-(D-Ala)-Tic-Ser-OH] (Hydrocinnamoyl-[dY]FLP[dS]QF[dA][Tic]S-OH), the EC50 [1] is reported as 31 nM.

`CC(C)C[C@H](NC(=O)[C@H](Cc1ccccc1)N(C)C(=O)[C@H](N)Cc1ccc(O)cc1)C(=O)N1CCC[C@H]1C(=O)N[C@H](CO)C(=O)N[C@@H](CCC(N)=O)C(=O)N[C@@H](Cc1ccccc1)C(=O)N[C@H](C)C(=O)N1Cc2ccccc2C[C@H]1C(=O)N[C@@H](CO)C(=O)O` [YW-104, (D-Tyr)-(NMe-Phe)-Leu-Pro-(D-Ser)-Gln-Phe-(D-Ala)-Tic-Ser-OH] (H-[dY][NMeF]LP[dS]QF[dA][Tic]S-OH) was tested, and the EC50 [1] was 80 nM.

Work on `CC(C)C[C@H](NC(=O)[C@H](Cc1ccccc1)NC(=O)[C@H](N)Cc1ccc(O)cc1)C(=O)N1CCC[C@H]1C(=O)N[C@H](CO)C(=O)N[C@@H](CCC(N)=O)C(=O)N[C@@H](Cc1ccc2ccccc2c1)C(=O)N[C@H](C)C(=O)N1Cc2ccccc2C[C@H]1C(=O)N[C@@H](CO)C(=O)O` [YW-118, (D-Tyr)-Phe-Leu-Pro-(D-Ser)-Gln-2Nal-(D-Ala)-Tic-Ser-OH] (H-[dY]FLP[dS]Q[2Nal][dA][Tic]S-OH) yielded an EC50 of 6.9 nM.

Compound `CC(C)C[C@@H](C(=O)N1CSC[C@H]1C(=O)N[C@H](CO)C(=O)N[C@@H](CCC(N)=O)C(=O)N[C@@H](Cc1ccccc1)C(=O)N[C@H](C)C(=O)N1Cc2ccccc2C[C@H]1C(=O)N[C@@H](CO)C(=O)O)N(C)C(=O)[C@H](Cc1ccccc1)NC(=O)[C@H](N)Cc1ccc(O)cc1` [YW-121, (D-Tyr)-Phe-(NMe-Leu)-Thz-(D-Ser)-Gln-Phe-(D-Ala)-Tic-Ser-OH] (H-[dY]F[NMeL][Thz][dS]QF[dA][Tic]S-OH) has an EC50 [1] of 0.7 nM.

`CC(C)C[C@@H](C(=O)N1CCC[C@H]1C(=O)N[C@H](CO)C(=O)N[C@@H](CCC(N)=O)C(=O)N[C@@H](Cc1ccccc1)C(=O)N[C@H](C)C(=O)N1Cc2ccccc2C[C@H]1C(=O)N(C)[C@@H](CO)C(=O)O)N(C)C(=O)[C@H](Cc1ccccc1)NC(=O)[C@H](N)Cc1ccc(O)cc1` [YW-166, (D-Tyr)-Phe-(NMe-Leu)-Pro-(D-Ser)-Gln-Phe-(D-Ala)-Tic-(NMe-Ser)-OH] (H-[dY]F[NMeL]P[dS]QF[dA][Tic][NMeS]-OH) showed an EC50 [1] of 5 nM.

With `CN[C@H](Cc1ccc(O)cc1)C(=O)N[C@@H](Cc1ccccc1)C(=O)N(C)[C@@H](CC(C)C)C(=O)N1CSC[C@H]1C(=O)N[C@H](CO)C(=O)N[C@@H](CCC(N)=O)C(=O)N[C@@H](Cc1ccccc1)C(=O)N[C@H](C)C(=O)N1Cc2ccccc2C[C@H]1C(=O)N(C)[C@@H](CO)C(=O)O` [YW-124, (NMe-D-Tyr)-Phe-(NMe-Leu)-Thz-(D-Ser)-Gln-Phe-(D-Ala)-Tic-(NMe-Ser)-OH] (H-[dNMeY]F[NMeL][Thz][dS]QF[dA][Tic][NMeS]-OH) the EC50 [1] was 1.3 nM.
